Like-named read-outs stand apart in the source and are kept apart here.
What was measured:
human AR = target: T1, human AR (Homo sapiens, UniProt P10275); experiment: cell-based; type: binding
T1 construct: expressed in transfected cells; host or cells: CV-1 cells (African green monkey kidney fibroblasts), transient calcium phosphate transfection
T1 sequence (P10275 1-920): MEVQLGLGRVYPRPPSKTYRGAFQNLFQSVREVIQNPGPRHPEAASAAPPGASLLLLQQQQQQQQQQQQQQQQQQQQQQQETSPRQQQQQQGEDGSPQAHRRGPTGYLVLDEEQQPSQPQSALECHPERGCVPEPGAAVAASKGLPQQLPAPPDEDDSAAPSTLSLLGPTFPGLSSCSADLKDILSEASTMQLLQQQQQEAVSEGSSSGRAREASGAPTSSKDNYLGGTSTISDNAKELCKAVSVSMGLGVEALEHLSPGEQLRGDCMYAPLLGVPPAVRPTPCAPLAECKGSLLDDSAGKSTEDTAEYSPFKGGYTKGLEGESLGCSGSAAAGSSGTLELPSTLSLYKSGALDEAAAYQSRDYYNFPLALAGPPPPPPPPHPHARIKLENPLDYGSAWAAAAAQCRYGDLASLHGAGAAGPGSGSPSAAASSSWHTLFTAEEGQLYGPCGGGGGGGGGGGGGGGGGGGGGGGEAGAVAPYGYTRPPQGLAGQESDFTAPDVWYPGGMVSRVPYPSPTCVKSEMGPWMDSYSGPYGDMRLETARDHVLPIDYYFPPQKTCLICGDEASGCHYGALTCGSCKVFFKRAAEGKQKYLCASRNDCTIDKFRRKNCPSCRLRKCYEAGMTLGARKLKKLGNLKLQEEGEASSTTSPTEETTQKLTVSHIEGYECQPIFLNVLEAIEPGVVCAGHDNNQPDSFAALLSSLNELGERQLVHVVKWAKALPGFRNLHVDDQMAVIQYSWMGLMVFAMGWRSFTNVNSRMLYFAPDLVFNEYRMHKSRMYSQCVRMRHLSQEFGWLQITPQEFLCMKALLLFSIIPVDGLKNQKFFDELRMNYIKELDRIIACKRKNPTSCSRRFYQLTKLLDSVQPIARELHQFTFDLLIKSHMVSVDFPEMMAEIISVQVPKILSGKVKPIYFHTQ

GR = target: T2, GR (Homo sapiens, UniProt P04150); experiment: cell-based
T2 sequence (P04150 1-777): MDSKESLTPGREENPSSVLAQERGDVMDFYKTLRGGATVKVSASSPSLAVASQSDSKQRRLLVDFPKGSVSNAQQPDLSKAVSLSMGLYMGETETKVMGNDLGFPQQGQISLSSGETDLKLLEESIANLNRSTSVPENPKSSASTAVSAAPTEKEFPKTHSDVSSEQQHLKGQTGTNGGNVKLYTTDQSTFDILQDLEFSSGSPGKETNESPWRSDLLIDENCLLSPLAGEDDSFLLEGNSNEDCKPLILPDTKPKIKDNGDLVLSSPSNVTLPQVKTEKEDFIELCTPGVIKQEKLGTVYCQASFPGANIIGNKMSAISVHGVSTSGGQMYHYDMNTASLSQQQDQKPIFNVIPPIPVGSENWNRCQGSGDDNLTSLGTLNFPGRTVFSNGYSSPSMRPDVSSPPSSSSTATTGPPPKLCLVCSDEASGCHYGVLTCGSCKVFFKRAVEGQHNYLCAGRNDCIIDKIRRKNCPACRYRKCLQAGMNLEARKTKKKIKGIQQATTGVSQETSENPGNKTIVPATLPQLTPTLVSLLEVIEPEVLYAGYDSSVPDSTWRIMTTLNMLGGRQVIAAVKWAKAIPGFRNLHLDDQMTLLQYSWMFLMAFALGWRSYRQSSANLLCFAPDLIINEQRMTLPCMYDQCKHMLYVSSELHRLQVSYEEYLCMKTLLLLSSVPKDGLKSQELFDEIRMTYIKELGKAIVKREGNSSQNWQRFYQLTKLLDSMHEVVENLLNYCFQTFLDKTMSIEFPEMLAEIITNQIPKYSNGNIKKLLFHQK
Experimental: (§1) CV-1 cells (African green monkey kidney fibroblasts) were cultured in the presence of Dulbecco's Modified Eagle Medium (DMEM) supplemented with 10% charcoal resinstripped fetal bovine serum then transferred to 96-well microtiter plates one day prior to transfection.
(§2) Three to four replicates were used for each sample.
(§3) After 40 hours, the cells were washed with PBS, lysed with a Triton X-100-based buffer and assayed for LUC and β-Gal activities using a luminometer or spectrophotometer, respectively. For each replicate, the normalized response (NR) was calculated as: LUC response/β-Gal rate where β-Gal rate = β-Gal•1x10^-5/β-Gal incubation time.

ER = target: T3, ER (Homo sapiens, UniProt P03372); experiment: Co-transfection assay, ER antagonist mode; type: cell-based
T3 construct: expressed in transfected cells; host or cells: CV-1 cells
Experimental: as §1, §2, §3

PR = target: T4, PR (Homo sapiens, UniProt P06401); experiment: Co-transfection assay, PR agonist mode; type: cell-based; parameters: expressed in transfected cells; host or cells: CV-1 cells
T4 sequence (P06401 1-933): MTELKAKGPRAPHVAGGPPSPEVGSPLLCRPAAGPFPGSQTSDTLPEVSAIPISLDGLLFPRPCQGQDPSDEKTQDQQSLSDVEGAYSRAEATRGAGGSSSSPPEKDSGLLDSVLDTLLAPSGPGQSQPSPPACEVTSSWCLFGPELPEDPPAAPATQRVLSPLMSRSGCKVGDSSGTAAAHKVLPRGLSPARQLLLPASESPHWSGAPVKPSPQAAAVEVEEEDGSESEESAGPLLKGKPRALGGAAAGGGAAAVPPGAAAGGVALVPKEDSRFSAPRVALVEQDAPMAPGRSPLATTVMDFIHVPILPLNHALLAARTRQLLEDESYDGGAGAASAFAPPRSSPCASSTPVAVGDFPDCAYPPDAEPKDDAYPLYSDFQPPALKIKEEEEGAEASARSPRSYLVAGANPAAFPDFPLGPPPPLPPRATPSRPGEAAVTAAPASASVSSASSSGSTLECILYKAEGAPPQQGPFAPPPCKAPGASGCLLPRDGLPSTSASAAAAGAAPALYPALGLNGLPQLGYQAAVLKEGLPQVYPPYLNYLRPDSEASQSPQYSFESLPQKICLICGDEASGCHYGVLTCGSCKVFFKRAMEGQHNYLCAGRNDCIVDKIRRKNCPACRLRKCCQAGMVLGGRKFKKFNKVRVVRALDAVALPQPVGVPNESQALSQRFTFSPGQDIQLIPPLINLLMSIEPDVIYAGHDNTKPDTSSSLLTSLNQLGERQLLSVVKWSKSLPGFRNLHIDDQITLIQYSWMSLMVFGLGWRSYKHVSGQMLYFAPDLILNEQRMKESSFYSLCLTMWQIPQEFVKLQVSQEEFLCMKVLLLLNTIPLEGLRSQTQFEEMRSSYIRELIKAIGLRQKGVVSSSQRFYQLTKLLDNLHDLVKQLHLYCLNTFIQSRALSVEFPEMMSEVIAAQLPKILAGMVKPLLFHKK
Experimental: as §1, §2, §3

T3 sequence (P03372 whole entry): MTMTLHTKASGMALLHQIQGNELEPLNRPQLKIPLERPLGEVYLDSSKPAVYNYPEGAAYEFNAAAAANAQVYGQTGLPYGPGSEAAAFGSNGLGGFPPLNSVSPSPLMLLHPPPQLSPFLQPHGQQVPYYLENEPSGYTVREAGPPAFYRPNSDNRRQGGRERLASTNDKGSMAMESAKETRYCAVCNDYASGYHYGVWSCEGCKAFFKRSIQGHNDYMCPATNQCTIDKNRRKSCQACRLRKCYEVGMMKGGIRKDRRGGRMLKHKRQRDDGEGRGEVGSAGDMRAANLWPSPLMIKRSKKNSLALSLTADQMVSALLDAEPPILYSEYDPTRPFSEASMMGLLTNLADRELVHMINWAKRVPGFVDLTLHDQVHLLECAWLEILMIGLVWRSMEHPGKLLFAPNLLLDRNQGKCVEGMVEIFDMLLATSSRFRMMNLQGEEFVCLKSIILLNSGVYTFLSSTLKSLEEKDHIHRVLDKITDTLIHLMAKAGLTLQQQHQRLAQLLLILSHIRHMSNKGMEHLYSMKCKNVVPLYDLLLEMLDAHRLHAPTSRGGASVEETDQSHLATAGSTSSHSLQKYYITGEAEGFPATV

SMILES	Ki (human AR) [µM]	IC50 (GR) [µM]	IC50 (ER) [µM]	EC50 (PR) [µM]	Ki (human AR; read-out: AR Binding Ki) [µM]
CC12CCCN1c1cc3[nH]c(=O)c(F)c(C(F)(F)F)c3cc1CC2 (racemic) [Compound 102, (R/S)-3-Fluoro-6,7,7a,11-tetrahydro-7a-methyl-4-trifluoromethyl-2-pyridono[5,6-g]pyrrolidino[1,2-a]quinoline]	0.078	> 10	> 10	> 10	
CC12CCCN1c1cc3nc(O)cc(C(F)(F)F)c3cc1CC2 (racemic) [Compound 101, (R/S)-6,7,7a,11-Tetrahydro-7a-methyl-4-trifluoromethyl-2-pyridono[5,6-g]pyrrolidino[1,2-a]quinoline]		> 10	> 10	> 10	0.169

From patent publication EP0918774B9, “ANDROGEN RECEPTOR MODULATOR COMPOUNDS AND METHODS” (LIGAND PHARMACEUTICALS INCORPORATED, priority 1996, dated 1997)
